Measurements from ChEMBL document CHEMBL1255421, “In vitro fungicidal activities of echinocandins against Candida metapsilosis, C. orthopsilosis, and C. parapsilosis evaluated by time-kill studies” (2010).
Converted amounts (≈) assume the structure as drawn. The source made the active and inactive calls. The calls are words filed in the database; no cut-off is given here. Numbered stars: 1 amine (or outer) side, 2 acyl side, 3 side chain; on linkers, the order of the positions; unused ones are H or OH. Bridge positions count the residues as written; N and C are the ends. Square brackets hold non-standard residues; d marks the D form. Peptide text beside a SMILES is read from it. * marks the point of attachment. pTerphenylCO(4''-OnC5H11) = CCCCCOc1ccc(-c2ccc(-c3ccc(C(=O)*)cc3)cc2)cc1; Orn(4R-OH,5R-OH) = O=C([C@H](C[C@@H](O)[C@@H](O)N[*:3])N[*:1])[*:2]; hTyr(3S-OH,4S-OH) = N[C@H](C(=O)O)[C@H](O)[C@@H](O)c1ccc(O)cc1; Pro(3S-OH,4S-Me) = C[C@H]1CN[C@H](C(=O)O)[C@H]1O; Hyp = O=C(O)[C@@H]1C[C@@H](O)CN1

Key:
[1] = tested on: Candida orthopsilosis; test: Antifungal activity against Candida orthopsilosis clinical isolate bloodstream form assessed as time required for 50% reduction in fungal growth at 1 mg/L by time-kill assay; assay type: functional
[2] = tested on: Candida parapsilosis; test: Antifungal activity against Candida parapsilosis clinical isolate bloodstream form assessed as time required for 99% reduction in fungal growth at 1 mg/L by time-kill assay; assay type: functional
[3] = tested on: Candida metapsilosis; test: Antifungal activity against Candida metapsilosis clinical isolate bloodstream form assessed as time required for 99.9% reduction in fungal growth at 0.25 mg/L by time-kill assay; assay type: functional
[4] = tested on: Candida metapsilosis; test: Antifungal activity against Candida metapsilosis clinical isolate bloodstream form assessed as time required for 50% reduction in fungal growth at 1 mg/L by time-kill assay; assay type: functional
[5] = tested on: Candida parapsilosis; test: Antifungal activity against Candida parapsilosis clinical isolate bloodstream form assessed as time required for 50% reduction in fungal growth at 32 mg/L by time-kill assay; assay type: functional
[6] = tested on: Candida orthopsilosis; test: Antifungal activity against Candida orthopsilosis clinical isolate bloodstream form assessed as time required for 99% reduction in fungal growth at 32 mg/L by time-kill assay; assay type: functional
[7] = tested on: Candida orthopsilosis; test: Fungicidal activity against Candida orthopsilosis isolate ATC194 bloodstream form by CLSI method; assay type: functional; conditions: Lodderomyces orthopsilosis, isolate ATC-194
[8] = tested on: Candida metapsilosis; test: Antifungal activity against Candida metapsilosis clinical isolate bloodstream form assessed as time required for 50% reduction in fungal growth at 0.25 mg/L by time-kill assay; assay type: functional
[9] = tested on: Candida orthopsilosis; test: Antifungal activity against Candida orthopsilosis clinical isolate bloodstream form assessed as time required for 99% reduction in fungal growth at 4 mg/L by time-kill assay; assay type: functional
[10] = tested on: Candida metapsilosis; test: Fungicidal activity against Candida metapsilosis isolate ATC193 bloodstream form by CLSI method; assay type: functional; conditions: Lodderomyces metapsilosis, isolate ATC-193
[11] = tested on: Candida parapsilosis; test: Antifungal activity against Candida parapsilosis clinical isolate bloodstream form assessed as induction of fungal killing rate at 0.03 to 32 mg/L measured at 6 hrs by time-kill assay; assay type: functional, organism-based
[12] = tested on: Candida metapsilosis; test: Fungicidal activity against Candida metapsilosis isolate CP-133 bloodstream form by CLSI method; assay type: functional; conditions: Lodderomyces metapsilosis
[13] = tested on: Candida metapsilosis; test: Antifungal activity against Candida metapsilosis clinical isolate bloodstream form assessed as time required for 50% reduction in fungal growth at 32 mg/L by time-kill assay; assay type: functional
[14] = tested on: Candida orthopsilosis; test: Fungicidal activity against Candida orthopsilosis isolate CP-131 bloodstream form by CLSI method; assay type: functional; conditions: Lodderomyces orthopsilosis
[15] = tested on: Candida orthopsilosis; test: Antifungal activity against Candida orthopsilosis clinical isolate bloodstream form assessed as time required for 99% reduction in fungal growth at 16 mg/L by time-kill assay; assay type: functional
[16] = tested on: Candida metapsilosis; test: Antifungal activity against Candida metapsilosis clinical isolate bloodstream form assessed as time required for 99% reduction in fungal growth at 4 mg/L by time-kill assay; assay type: functional
[17] = tested on: Candida orthopsilosis; test: Antifungal activity against Candida orthopsilosis clinical isolate bloodstream form assessed as time required for 90% reduction in fungal growth at 1 mg/L by time-kill assay; assay type: functional
[18] = tested on: Candida metapsilosis; test: Antifungal activity against Candida metapsilosis clinical isolate bloodstream form assessed as time required for 99.9% reduction in fungal growth at 4 mg/L by time-kill assay; assay type: functional
[19] = tested on: Candida metapsilosis; test: Antifungal activity against Candida metapsilosis clinical isolate bloodstream form assessed as time required for 99% reduction in fungal growth at 0.25 mg/L by time-kill assay; assay type: functional
[20] = tested on: Candida orthopsilosis; test: Fungicidal activity against Candida orthopsilosis isolate CP-151 bloodstream form by CLSI method; assay type: functional; conditions: Lodderomyces orthopsilosis
[21] = tested on: Candida metapsilosis; test: Antifungal activity against Candida metapsilosis clinical isolate bloodstream form assessed as time required for 50% reduction in fungal growth at 4 mg/L by time-kill assay; assay type: functional
[22] = tested on: Candida metapsilosis; test: Antifungal activity against Candida metapsilosis clinical isolate bloodstream form assessed as time required for 99.9% reduction in fungal growth at 16 mg/L by time-kill assay; assay type: functional
[23] = tested on: Candida parapsilosis; test: Antifungal activity against Candida parapsilosis clinical isolate bloodstream form assessed as time required for 99.9% reduction in fungal growth at 4 mg/L by time-kill assay; assay type: functional
[24] = tested on: Candida metapsilosis; test: Antifungal activity against Candida metapsilosis clinical isolate bloodstream form assessed as time required for 99% reduction in fungal growth at 1 mg/L by time-kill assay; assay type: functional
[25] = tested on: Candida orthopsilosis; test: Antifungal activity against Candida orthopsilosis clinical isolate bloodstream form assessed as time required for 90% reduction in fungal growth at 32 mg/L by time-kill assay; assay type: functional
[26] = tested on: Candida orthopsilosis; test: Antifungal activity against Candida orthopsilosis clinical isolate bloodstream form assessed as time required for 50% reduction in fungal growth at 4 mg/L by time-kill assay; assay type: functional
[27] = tested on: Candida metapsilosis; test: Antifungal activity against Candida metapsilosis clinical isolate bloodstream form assessed as time required for 99.9% reduction in fungal growth at 32 mg/L by time-kill assay; assay type: functional
[28] = tested on: Candida metapsilosis; test: Antifungal activity against Candida metapsilosis clinical isolate bloodstream form assessed as time required for 90% reduction in fungal growth at 16 mg/L by time-kill assay; assay type: functional
[29] = tested on: Candida parapsilosis; test: Antifungal activity against Candida parapsilosis clinical isolate bloodstream form assessed as time required for 90% reduction in fungal growth at 0.25 mg/L by time-kill assay; assay type: functional
[30] = tested on: Candida parapsilosis; test: Antifungal activity against Candida parapsilosis clinical isolate bloodstream form assessed as time required for 99% reduction in fungal growth at 4 mg/L by time-kill assay; assay type: functional
[31] = tested on: Candida parapsilosis; test: Antifungal activity against Candida parapsilosis clinical isolate bloodstream form assessed as time required for 50% reduction in fungal growth at 4 mg/L by time-kill assay; assay type: functional
[32] = tested on: Candida parapsilosis; test: Antifungal activity against Candida parapsilosis clinical isolate bloodstream form assessed as time required for 50% reduction in fungal growth at 0.25 mg/L by time-kill assay; assay type: functional
[33] = tested on: Candida orthopsilosis; test: Antifungal activity against Candida orthopsilosis clinical isolate bloodstream form assessed as time required for 90% reduction in fungal growth at 4 mg/L by time-kill assay; assay type: functional
[34] = tested on: Candida parapsilosis; test: Antifungal activity against Candida parapsilosis clinical isolate bloodstream form assessed as time required for 90% reduction in fungal growth at 4 mg/L by time-kill assay; assay type: functional
[35] = tested on: Candida parapsilosis; test: Fungicidal activity against Candida parapsilosis isolate CP-302 bloodstream form by CLSI method; assay type: functional; conditions: Lodderomyces parapsilosis
[36] = tested on: Candida parapsilosis; test: Antifungal activity against Candida parapsilosis clinical isolate bloodstream form assessed as time required for 99% reduction in fungal growth at 0.25 mg/L by time-kill assay; assay type: functional
[37] = tested on: Candida parapsilosis; test: Fungicidal activity against Candida parapsilosis ATCC 22019 bloodstream form by CLSI method; assay type: functional; conditions: Lodderomyces parapsilosis
[38] = tested on: Candida orthopsilosis; test: Antifungal activity against Candida orthopsilosis clinical isolate bloodstream form assessed as time required for 99.9% reduction in fungal growth at 16 mg/L by time-kill assay; assay type: functional
[39] = tested on: Candida parapsilosis; test: Antifungal activity against Candida parapsilosis clinical isolate bloodstream form assessed as time required for 50% reduction in fungal growth at 1 mg/L by time-kill assay; assay type: functional
[40] = tested on: Candida parapsilosis; test: Antifungal activity against Candida parapsilosis clinical isolate bloodstream form assessed as inhibition of fungal regrowth at 0.03 to 32 mg/L after 6 hrs by time-kill assay; assay type: functional, organism-based
[41] = tested on: Candida orthopsilosis; test: Antifungal activity against Candida orthopsilosis clinical isolate bloodstream form assessed as time required for 90% reduction in fungal growth at 16 mg/L by time-kill assay; assay type: functional
[42] = tested on: Candida orthopsilosis; test: Antifungal activity against Candida orthopsilosis clinical isolate bloodstream form assessed as mild induction of fungal death at 0.03 to 32 mg/L after 6 hrs by time-kill assay; assay type: functional, organism-based
[43] = tested on: Candida orthopsilosis; test: Antifungal activity against Candida orthopsilosis clinical isolate bloodstream form assessed as time required for 50% reduction in fungal growth at 0.25 mg/L by time-kill assay; assay type: functional

SMILES: CCCCCOc1ccc(-c2ccc(-c3ccc(C(=O)N[C@H]4C[C@@H](O)[C@@H](O)NC(=O)[C@@H]5[C@@H](O)[C@@H](C)CN5C(=O)[C@H]([C@@H](C)O)NC(=O)[C@H]([C@H](O)[C@@H](O)c5ccc(O)cc5)NC(=O)[C@@H]5C[C@@H](O)CN5C(=O)[C@H]([C@@H](C)O)NC4=O)cc3)cc2)cc1 [ANIDULAFUNGIN] ({pTerphenylCO(4''-OnC5H11)}-[Orn(4R-OH,5R-OH)]T[Hyp][hTyr(3S-OH,4S-OH)]T[Pro(3S-OH,4S-Me)]; lactam 1-C)
- Time [1]: 6.36 h
- Time [2]: inactive
- Time [3]: 77.12 h
- Time [4]: 1.57 h
- Time [5]: 4.2 h
- Time [6]: 9.81 h
- MIC [7]: 0.12 µg/mL (≈ 0.105 µM)
- Time [8]: 7.74 h
- Time [9]: 18.17 h
- MIC [10]: 0.03 µg/mL (≈ 0.0263 µM)
- Activity [11]: inactive
- MIC [12]: 0.06 µg/mL (≈ 0.0526 µM)
- Time [13]: 1.41 h
- MIC [14]: 0.25 µg/mL (≈ 0.219 µM)
- Time [15]: 12.48 h
- Time [16]: 15.89 h
- Time [17]: 21.14 h
- Time [18]: 23.83 h
- Time [19]: 51.41 h
- MIC [20]: 0.5 µg/mL (≈ 0.438 µM)
- Time [21]: 2.39 h
- Time [22]: 15.03 h
- Time [23]: >48 h
- Time [24]: 10.44 h
- Time [25]: 4.91 h
- Time [26]: 2.73 h
- Time [27]: 14.06 h
- Time [28]: 5.01 h
- Time [29]: inactive
- Time [30]: >48 h
- Time [31]: 26.41 h
- Time [32]: inactive
- Time [33]: 9.08 h
- Time [34]: >48 h
- MIC [35]: 1 µg/mL (≈ 0.877 µM)
- Time [36]: inactive
- MIC [37]: 1 µg/mL (≈ 0.877 µM)
- Time [38]: 18.73 h
- Time [39]: inactive
- inhibition [40]: inactive
- Time [41]: 6.24 h
- Activity [42]: Active
- Time [43]: 17.4 h
